Laboratory results published in patent EP1166782A2, “Anti-retroviral pharmaceutical compositions” (Yang, Chi-Chiang, priority 2000, dated 2002).
Like-named read-outs stand apart in the source and are kept apart here.

Legend:
cells = test: Cellular activities in microculture tetrazolium (MTT) tests; assay type: cell-based
Procedure: The cellular activities were tested according to method as described in Alley M.C. et al, Cancer Res. 1988; 48(3):589-601. The principle of the method resides in that live cells can reduce MTT., i.e., 3-[4,5-dimethylthiazol-2-yl]-2,5-diphenyltetrazolium bromide)(tetrazolium salt) to formazan crystal through the dehydrogenase metabolism in Mitochondria. The crystal was dissolved in propanol and OD values were determined at 570 nm. The OD values can indicate the numbers of the live cells. The growth conditions of the cells were observed firstly. The cells were diluted to 2x10^4 cells/ml. 100µl sample taken by micropipet was placed in a 96-well plate. The plate was cultured for 24 hours as 37°C and 100µl of the compounds to be tested, which were prepared in medium, were added in each well. […] After culture for 4 hours, supernatant liquid was absorbed and 100 µl DMSO and 10µl /well was added. Each well was homogeneously mixed. The absorbance was determined at 570 nm.

[1] = system: macrophage-tropic (NL-43); test: P24 quantification (P24 EIA) in infected PBMCs, NL-43; assay type: cell-based, HIV-1; settings: PBMC; for concentrations of the viral P24 antigen, NL43(+): (+) original concentration of compound maintained after washing; for concentrations of the viral P24 antigen, NL43(-): (-) compound removed after washing
Procedure: (§1) PBMCs were treated with various concentrations of CAPE, MC and PEDMC provided in Example 2 and simultaneously infected with […] and macrophage and T cells dual tropic (89.6) HIV-1 isolates. The next day, the added compounds were removed by washing methods or maintained at the same concentration. Samples were divided into two groups and the upernatants of the culture medium were collected at the 3 and 7 days after infection, respectively. The use of P24 EIA Reagent Kit of Abbott Laboratory compares the concentrations of viral P24 antigen with or without the compounds tested.

T cells-tropic (JRCSF) = test: P24 quantification (P24 EIA) in infected PBMCs, JRCSF; assay type: cell-based, HIV-1; settings: PBMC; for concentrations of the viral P24 antigen, JRCSF(+): (+) original concentration of compound maintained after washing; for concentrations of the viral P24 antigen, JRCSF(-): (-) compound removed after washing
Procedure: as §1

[2] = system: macrophage and T cells dual tropic (89.6); test: P24 quantification (P24 EIA) in infected PBMCs, 89.6; assay type: cell-based, HIV-1; settings: PBMC; for concentrations of the viral P24 antigen, 89.6(+): (+) original concentration of compound maintained after washing; for concentrations of the viral P24 antigen, 89.6(-): (-) compound removed after washing
Procedure: as §1

[3] = system: various HIV isolates (NL-43, JRCSF or 89.6); test: P24 quantification, summary statements over all isolates; assay type: cell-based, HIV-1; settings: Figures 3-5; PBMC infected with NL-43, JRCSF or 89.6
Procedure: as §1

[4] = system: Peripheral Blood Mononuclear Cells (PBMC); settings: for The numbers of dead cells in 400 cells' count / % viability: 48 hours; for The numbers of dead cells in 400 cells' count: control 9 dead cells; for % viability: viable cells versus control (391);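 as to all read-outs here: trypan blue dye exclusion, cells stained and counted from quadruplicate dishes, DMSO vehicle kept under 0.5%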
Procedure: Viability of the cells was assayed by the trypan blue dye exclusion method. […] The concentration of DMSO was adjusted to be less than 0.5%. Cells from quadruplicated dishes were washed once with Hank's Balanced Salt Solution (HBSS). According to the process, the floating dead cells will be separated from the live monolayer cells. Then the cells were stained with trypan blue and counted. The total number of viable cells in the control group was considered as 100% viability and the agent-treated cells were compared with the control group for the determination of % viability. The % viability of agent-treated cells was calculated from the total number of viable cells in the control group and in the agent-treated group.

COc1ccc(C=CC(=O)OCCc2ccccc2)cc1OC [PEDMC, phenethyl dimethyl caffeate]
MTT 24h, cellular activities (cells; 0.1 µM): 92.38 relative percentage | MTT 48h, cellular activities (cells; 0.1 µM): 97.31 relative percentage | MTT 24h, cellular activities (cells; 0.5 µM): 98.72 relative percentage | MTT 48h, cellular activities (cells; 0.5 µM): 98.72 relative percentage | MTT 24h, cellular activities (cells; 1 µM): 98.26 relative percentage | MTT 48h, cellular activities (cells; 1 µM): 105.28 relative percentage | MTT 24h, cellular activities (cells; 5 µM): 94.33 relative percentage | MTT 48h, cellular activities (cells; 5 µM): 104.07 relative percentage | MTT 24h, cellular activities (cells; 10 µM): 98.72 relative percentage | MTT 48h, cellular activities (cells; 10 µM): 98.08 relative percentage | MTT 24h, cellular activities (cells; 25 µM): 107.27 relative percentage | MTT 48h, cellular activities (cells; 25 µM): 98.78 relative percentage | MTT 24h, cellular activities (cells; 50 µM): 102.03 relative percentage | MTT 48h, cellular activities (cells; 50 µM): 97.15 relative percentage | MTT 24h, cellular activities (cells; 100 µM): 106.06 relative percentage | MTT 48h, cellular activities (cells; 100 µM): 97.74 relative percentage | MTT 24h, cellular activities (cells; 200 µM): 97.93 relative percentage | MTT 48h, cellular activities (cells; 200 µM): 96.32 relative percentage | MTT 24h, cellular activities (cells; 400 µM): 94.8 relative percentage | MTT 48h, cellular activities (cells; 400 µM): 93.76 relative percentage | cellular activities in MTT tests (result in words) (cells; Figures 1 and 2, 24 and 48 hours): no substantial effects | concentrations of the viral P24 antigen, NL43(+) ([1]; 0.1 µM): 1000 unit | concentrations of the viral P24 antigen, NL43(-) ([1]; 0.1 µM): 1000 unit | concentrations of the viral P24 antigen, NL43(+) ([1]; 0.5 µM): 1000 unit | concentrations of the viral P24 antigen, NL43(-) ([1]; 0.5 µM): 1000 unit | concentrations of the viral P24 antigen, NL43(+) ([1]; 1 µM): 1000 unit | concentrations of the viral P24 antigen, NL43(-) ([1]; 1 µM): 1000 unit | concentrations of the viral P24 antigen, NL43(+) ([1]; 5 µM): 1000 unit | concentrations of the viral P24 antigen, NL43(-) ([1]; 5 µM): 1000 unit | concentrations of the viral P24 antigen, NL43(+) ([1]; 10 µM): 1000 unit | concentrations of the viral P24 antigen, NL43(-) ([1]; 10 µM): 1000 unit | concentrations of the viral P24 antigen, NL43(+) ([1]; 25 µM): 1000 unit | concentrations of the viral P24 antigen, NL43(-) ([1]; 25 µM): 1000 unit | concentrations of the viral P24 antigen, NL43(+) ([1]; 50 µM): 1000 unit | concentrations of the viral P24 antigen, NL43(-) ([1]; 50 µM): 1000 unit | concentrations of the viral P24 antigen, NL43(+) ([1]; 100 µM): 1000 unit | concentrations of the viral P24 antigen, NL43(-) ([1]; 100 µM): 1000 unit | concentrations of the viral P24 antigen, NL43(+) ([1]; 200 µM): 890.43 unit | concentrations of the viral P24 antigen, NL43(-) ([1]; 200 µM): 981.43 unit | concentrations of the viral P24 antigen, NL43(+) ([1]; 400 µM): 640.7 unit | concentrations of the viral P24 antigen, NL43(-) ([1]; 400 µM): 898.4 unit | concentrations of the viral P24 antigen, JRCSF(+) (T cells-tropic (JRCSF); 0.1 µM): 1000 unit | concentrations of the viral P24 antigen, JRCSF(-) (T cells-tropic (JRCSF); 0.1 µM): 1000 unit | concentrations of the viral P24 antigen, JRCSF(+) (T cells-tropic (JRCSF); 0.5 µM): 1000 unit | concentrations of the viral P24 antigen, JRCSF(-) (T cells-tropic (JRCSF); 0.5 µM): 1000 unit | concentrations of the viral P24 antigen, JRCSF(+) (T cells-tropic (JRCSF); 1 µM): 1000 unit | concentrations of the viral P24 antigen, JRCSF(-) (T cells-tropic (JRCSF); 1 µM): 1000 unit | concentrations of the viral P24 antigen, JRCSF(+) (T cells-tropic (JRCSF); 5 µM): 1000 unit | concentrations of the viral P24 antigen, JRCSF(-) (T cells-tropic (JRCSF); 5 µM): 1000 unit | concentrations of the viral P24 antigen, JRCSF(+) (T cells-tropic (JRCSF); 10 µM): 1000 unit | concentrations of the viral P24 antigen, JRCSF(-) (T cells-tropic (JRCSF); 10 µM): 1000 unit | concentrations of the viral P24 antigen, JRCSF(+) (T cells-tropic (JRCSF); 25 µM): 1000 unit | concentrations of the viral P24 antigen, JRCSF(-) (T cells-tropic (JRCSF); 25 µM): 1000 unit | concentrations of the viral P24 antigen, JRCSF(+) (T cells-tropic (JRCSF); 50 µM): 1000 unit | concentrations of the viral P24 antigen, JRCSF(-) (T cells-tropic (JRCSF); 50 µM): 1000 unit | concentrations of the viral P24 antigen, JRCSF(+) (T cells-tropic (JRCSF); 100 µM): 892.45 unit | concentrations of the viral P24 antigen, JRCSF(-) (T cells-tropic (JRCSF); 100 µM): 1000 unit | concentrations of the viral P24 antigen, JRCSF(+) (T cells-tropic (JRCSF); 200 µM): 452.46 unit | concentrations of the viral P24 antigen, JRCSF(-) (T cells-tropic (JRCSF); 200 µM): 1000 unit | concentrations of the viral P24 antigen, JRCSF(+) (T cells-tropic (JRCSF); 400 µM): 348.96 unit | concentrations of the viral P24 antigen, JRCSF(-) (T cells-tropic (JRCSF); 400 µM): 869.4 unit | concentrations of the viral P24 antigen, 89.6(+) ([2]; 0.1 µM): 1000 unit | concentrations of the viral P24 antigen, 89.6(-) ([2]; 0.1 µM): 1000 unit | concentrations of the viral P24 antigen, 89.6(+) ([2]; 0.5 µM): 1000 unit | concentrations of the viral P24 antigen, 89.6(-) ([2]; 0.5 µM): 1000 unit | concentrations of the viral P24 antigen, 89.6(+) ([2]; 1 µM): 1000 unit | concentrations of the viral P24 antigen, 89.6(-) ([2]; 1 µM): 1000 unit | concentrations of the viral P24 antigen, 89.6(+) ([2]; 5 µM): 1000 unit | concentrations of the viral P24 antigen, 89.6(-) ([2]; 5 µM): 1000 unit | concentrations of the viral P24 antigen, 89.6(+) ([2]; 10 µM): 965.48 unit | concentrations of the viral P24 antigen, 89.6(-) ([2]; 10 µM): 932.67 unit | concentrations of the viral P24 antigen, 89.6(+) ([2]; 25 µM): 886.42 unit | concentrations of the viral P24 antigen, 89.6(-) ([2]; 25 µM): 927.4 unit | concentrations of the viral P24 antigen, 89.6(+) ([2]; 50 µM): 747.3 unit | concentrations of the viral P24 antigen, 89.6(-) ([2]; 50 µM): 681.42 unit | concentrations of the viral P24 antigen, 89.6(+) ([2]; 100 µM): 238.49 unit | concentrations of the viral P24 antigen, 89.6(-) ([2]; 100 µM): 647 unit | concentrations of the viral P24 antigen, 89.6(+) ([2]; 200 µM): 187.59 unit | concentrations of the viral P24 antigen, 89.6(-) ([2]; 200 µM): 539.82 unit | concentrations of the viral P24 antigen, 89.6(+) ([2]; 400 µM): 84.85 unit | concentrations of the viral P24 antigen, 89.6(-) ([2]; 400 µM): 494.91 unit | viral replications (result in words) [3]: significantly inhibited viral replications | The numbers of dead cells in 400 cells' count ([4]; 0.1 µM): 11 | % viability ([4]; 0.1 µM): 389/391 (99.5%) | The numbers of dead cells in 400 cells' count ([4]; 0.5 µM): 10 | % viability ([4]; 0.5 µM): 390/391 (99.7%) | The numbers of dead cells in 400 cells' count ([4]; 1 µM): 7 | % viability ([4]; 1 µM): 393/391 (100.5%) | The numbers of dead cells in 400 cells' count ([4]; 5 µM): 11 | % viability ([4]; 5 µM): 389/391 (99.5%) | The numbers of dead cells in 400 cells' count ([4]; 10 µM): 9 | % viability ([4]; 10 µM): 391/391 (100%) | The numbers of dead cells in 400 cells' count ([4]; 25 µM): 8 | % viability ([4]; 25 µM): 392/391 (100.3%) | The numbers of dead cells in 400 cells' count ([4]; 50 µM): 10 | % viability ([4]; 50 µM): 390/391 (99.7%) | The numbers of dead cells in 400 cells' count ([4]; 100 µM): 10 | % viability ([4]; 100 µM): 390/391 (99.7%) | The numbers of dead cells in 400 cells' count ([4]; 200 µM): 7 | % viability ([4]; 200 µM): 393/391 (100.5%) | The numbers of dead cells in 400 cells' count ([4]; 400 µM): 6 | % viability ([4]; 400 µM): 394/391 (100.8%) | viabilities of PBMC under high-dose versus low-dose treatments (result in words) ([4]; high dose up to 400 µM compared with 0.1-10 µM): no substantial differences
